In PubChem BioAssay AID2060508 (Molecular Pharmacology Branch, DTP, NCI, 2025):
pIC50: −log10 of the molar value.

Tested on: 454973-116-R2-J3-PDC spheroids, viability, % test/control
Assay: Anticancer human tumor 454973-116-R2-J3-PDC patient-derived pancreatic carcinoma cell line growth inhibition [GQUAD]
Conditions: spheroids with HUVEC and MSC; for pIC50: curve of first compound; for viability, T/C: stronger effect = lower value
How it was run: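 Viability of tumor cells grown as complex spheroids with endothelial and stromal cells, exposed to drug combinations. Top concentration at or near clinical Cmax (else 10 microM), diluted in half-log increments.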

[1] = second compound 0.0316 µM, first compound 0.000999 µM
[2] = second compound 0.0316 µM, first compound 0.00316 µM
[3] = second compound 0.0316 µM, first compound 0.00999 µM
[4] = second compound 0.0316 µM, first compound 0.0316 µM
[5] = second compound 0.0316 µM, first compound 0.0999 µM
[6] = second compound 0.0316 µM, first compound 0.316 µM
[7] = second compound 0.1 µM, first compound 0.000999 µM
[8] = second compound 0.1 µM, first compound 0.00316 µM
[9] = second compound 0.1 µM, first compound 0.00999 µM
[10] = second compound 0.1 µM, first compound 0.0316 µM
[11] = second compound 0.1 µM, first compound 0.0999 µM
[12] = second compound 0.1 µM, first compound 0.316 µM
[13] = second compound 0.316 µM, first compound 0.000999 µM
[14] = second compound 0.316 µM, first compound 0.00316 µM
[15] = second compound 0.316 µM, first compound 0.00999 µM
[16] = second compound 0.316 µM, first compound 0.0316 µM
[17] = second compound 0.316 µM, first compound 0.0999 µM
[18] = second compound 0.316 µM, first compound 0.316 µM
[19] = second compound 1 µM, first compound 0.000999 µM
[20] = second compound 1 µM, first compound 0.00316 µM
[21] = second compound 1 µM, first compound 0.00999 µM
[22] = second compound 1 µM, first compound 0.0316 µM
[23] = second compound 1 µM, first compound 0.0999 µM
[24] = second compound 1 µM, first compound 0.316 µM
[25] = second compound 3.16 µM, first compound 0.000999 µM
[26] = second compound 3.16 µM, first compound 0.00316 µM
[27] = second compound 3.16 µM, first compound 0.00999 µM
[28] = second compound 3.16 µM, first compound 0.0316 µM
[29] = second compound 3.16 µM, first compound 0.0999 µM
[30] = second compound 3.16 µM, first compound 0.316 µM
[31] = second compound 10 µM, first compound 0.000999 µM
[32] = second compound 10 µM, first compound 0.00316 µM
[33] = second compound 10 µM, first compound 0.00999 µM
[34] = second compound 10 µM, first compound 0.0316 µM
[35] = second compound 10 µM, first compound 0.0999 µM
[36] = second compound 10 µM, first compound 0.316 µM
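Also: spheroids exposed to compounds for seven days.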
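For viability, T/C in this document: 100% = DMSO vehicle control viability.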

Compound: CC[C@@]1(O)C(=O)OCc2c1cc1n(c2=O)Cc2cc3c(CN(C)C)c(O)ccc3nc2-1 + Cc1cnc(CNC(=O)c2c(=O)c3ccc(N4CCCN(C)CC4)nc3n3c2sc2ccccc23)cn1
- pIC50 (second compound 0.0316 µM): 7.53
- pIC50 (second compound 0.1 µM): 7.69
- pIC50 (second compound 0.316 µM): 7.76
- pIC50 (second compound 1 µM): 7.61
- pIC50 (second compound 3.16 µM): 6.72
- pIC50 (second compound 10 µM): > 9.00
- viability, T/C [1]: 104%
- viability, T/C [2]: 95.8%
- viability, T/C [3]: 84.9%
- viability, T/C [4]: 49%
- viability, T/C [5]: 21.9%
- viability, T/C [6]: 23.7%
- viability, T/C [7]: 90.8%
- viability, T/C [8]: 90.2%
- viability, T/C [9]: 77%
- viability, T/C [10]: 33.4%
- viability, T/C [11]: 24.8%
- viability, T/C [12]: 23.1%
- viability, T/C [13]: 79.9%
- viability, T/C [14]: 69.1%
- viability, T/C [15]: 55.6%
- viability, T/C [16]: 43.1%
- viability, T/C [17]: 39.2%
- viability, T/C [18]: 32.9%
- viability, T/C [19]: 67.1%
- viability, T/C [20]: 67.6%
- viability, T/C [21]: 54.9%
- viability, T/C [22]: 48.4%
- viability, T/C [23]: 50%
- viability, T/C [24]: 47.4%
- viability, T/C [25]: 61.2%
- viability, T/C [26]: 63.4%
- viability, T/C [27]: 60.2%
- viability, T/C [28]: 49.6%
- viability, T/C [29]: 61.7%
- viability, T/C [30]: 42.7%
- viability, T/C [31]: 19.2%
- viability, T/C [32]: 17.5%
- viability, T/C [33]: 57%
- viability, T/C [34]: 45.9%
- viability, T/C [35]: 0.31%
- viability, T/C [36]: 0.23%

Compound: CCc1c2c(nc3ccc(O)cc13)-c1cc3c(c(=O)n1C2)COC(=O)[C@]3(O)CC + Cc1cnc(CNC(=O)c2c(=O)c3ccc(N4CCCN(C)CC4)nc3n3c2sc2ccccc23)cn1
- pIC50 (second compound 0.0316 µM): > 9.00
- pIC50 (second compound 0.1 µM): > 9.00
- pIC50 (second compound 0.316 µM): > 9.00
- pIC50 (second compound 1 µM): 8.84
- pIC50 (second compound 3.16 µM): 8.39
- pIC50 (second compound 10 µM): > 9.00
- viability, T/C [1]: 45.7%
- viability, T/C [2]: 24.6%
- viability, T/C [3]: 22.9%
- viability, T/C [4]: 12.3%
- viability, T/C [5]: 7.38%
- viability, T/C [6]: 4.15%
- viability, T/C [7]: 36.2%
- viability, T/C [8]: 24.1%
- viability, T/C [9]: 22.9%
- viability, T/C [10]: 14.8%
- viability, T/C [11]: 7.21%
- viability, T/C [12]: 4.8%
- viability, T/C [13]: 37.7%
- viability, T/C [14]: 34.2%
- viability, T/C [15]: 33.7%
- viability, T/C [16]: 15.9%
- viability, T/C [17]: 7.83%
- viability, T/C [18]: 4.86%
- viability, T/C [19]: 47.1%
- viability, T/C [20]: 54.1%
- viability, T/C [21]: 36.5%
- viability, T/C [22]: 22.2%
- viability, T/C [23]: 7.17%
- viability, T/C [24]: 2.75%
- viability, T/C [25]: 59.7%
- viability, T/C [26]: 51.9%
- viability, T/C [27]: 40%
- viability, T/C [28]: 26.1%
- viability, T/C [29]: 7.65%
- viability, T/C [30]: 0.55%
- viability, T/C [31]: 16.4%
- viability, T/C [32]: 16.7%
- viability, T/C [33]: 38.7%
- viability, T/C [34]: 0.26%
- viability, T/C [35]: 0.24%
- viability, T/C [36]: 0.7%

Compound: COc1cc(C2c3cc4c(cc3C(OC3OC5COC(C)OC5C(O)C3O)C3COC(=O)C23)OCO4)cc(OC)c1O (stereo unspecified) + Cc1cnc(CNC(=O)c2c(=O)c3ccc(N4CCCN(C)CC4)nc3n3c2sc2ccccc23)cn1
- pIC50 (second compound 0.0316 µM): 6.19
- pIC50 (second compound 0.1 µM): 6.29
- pIC50 (second compound 0.316 µM): 6.33
- pIC50 (second compound 1 µM): 5.97
- pIC50 (second compound 3.16 µM): 5.74
- pIC50 (second compound 10 µM): > 7.50
- viability, T/C [4]: 100%
- viability, T/C (second compound 0.0316 µM, first compound 0.1 µM): 80.6%
- viability, T/C [6]: 70.7%
- viability, T/C (second compound 0.0316 µM, first compound 1 µM): 39.3%
- viability, T/C (second compound 0.0316 µM, first compound 3.16 µM): 17.8%
- viability, T/C (second compound 0.0316 µM, first compound 10 µM): 12.4%
- viability, T/C [10]: 85%
- viability, T/C (second compound 0.1 µM, first compound 0.1 µM): 73.7%
- viability, T/C [12]: 59.2%
- viability, T/C (second compound 0.1 µM, first compound 1 µM): 35%
- viability, T/C (second compound 0.1 µM, first compound 3.16 µM): 28.6%
- viability, T/C (second compound 0.1 µM, first compound 10 µM): 12%
- viability, T/C [16]: 75.6%
- viability, T/C (second compound 0.316 µM, first compound 0.1 µM): 73.9%
- viability, T/C [18]: 53%
- viability, T/C (second compound 0.316 µM, first compound 1 µM): 38%
- viability, T/C (second compound 0.316 µM, first compound 3.16 µM): 29.4%
- viability, T/C (second compound 0.316 µM, first compound 10 µM): 16.7%
- viability, T/C [22]: 67.8%
- viability, T/C (second compound 1 µM, first compound 0.1 µM): 61.8%
- viability, T/C [24]: 55.9%
- viability, T/C (second compound 1 µM, first compound 1 µM): 51.5%
- viability, T/C (second compound 1 µM, first compound 3.16 µM): 40.5%
- viability, T/C (second compound 1 µM, first compound 10 µM): 21.9%
- viability, T/C [28]: 66.9%
- viability, T/C (second compound 3.16 µM, first compound 0.1 µM): 68.4%
- viability, T/C [30]: 58.3%
- viability, T/C (second compound 3.16 µM, first compound 1 µM): 53.7%
- viability, T/C (second compound 3.16 µM, first compound 3.16 µM): 47.5%
- viability, T/C (second compound 3.16 µM, first compound 10 µM): 31.3%
- viability, T/C [34]: 16.2%
- viability, T/C (second compound 10 µM, first compound 0.1 µM): 17.1%
- viability, T/C [36]: 58.4%
- viability, T/C (second compound 10 µM, first compound 1 µM): 49.7%
- viability, T/C (second compound 10 µM, first compound 3.16 µM): 29.3%
- viability, T/C (second compound 10 µM, first compound 10 µM): 0.59%
